{"source": "ChEMBL document CHEMBL3769377", "about": "“A synthesis, in silico, in vitro and in vivo study of thieno[2,3-b]pyridine anticancer analogues” (Medchemcomm, 2015)", "key": {"[1]": {"molecular_target": "Cyclin-dependent kinase 11B (Homo sapiens) (UniProt P21127)", "test": "Inhibition of human recombinant CDK11 assessed as residual activity at 10 uM after 1 hr by qPCR analysis relative to control"}, "[2]": {"molecular_target": "cAMP-dependent protein kinase catalytic subunit alpha (Homo sapiens) (UniProt P17612)", "test": "Inhibition of human recombinant PKACalpha assessed as residual activity at 10 uM after 1 hr by qPCR analysis relative to control"}, "[3]": {"molecular_target": "Tyrosyl-DNA phosphodiesterase 1 (Homo sapiens, UniProt Q9NUW8)", "test": "Inhibition of recombinant human N-terminal His-tagged TDP1 (1824 bp) expressed in Escherichia coli BL21(DE3) cells using 5'-(5,6 FAM-AAC GTC AGG GTC TTC C-BHQ1)-3' as substrate measured every 1 min by RT-PCR method"}, "[4]": {"molecular_target": "RAF proto-oncogene serine/threonine-protein kinase (Homo sapiens) (UniProt P04049)", "test": "Inhibition of human recombinant RAF1 assessed as residual activity at 10 uM after 1 hr by qPCR analysis relative to control"}, "[5]": {"molecular_target": "Serine/threonine-protein kinase PAK 1 (Homo sapiens) (UniProt Q13153)", "test": "Inhibition of human recombinant PAK1 assessed as residual activity at 10 uM after 1 hr by qPCR analysis relative to control"}, "[6]": {"molecular_target": "Tyrosine-protein kinase receptor UFO (Homo sapiens) (UniProt P30530)", "test": "Inhibition of human recombinant AXL assessed as residual activity at 10 uM after 1 hr by qPCR analysis relative to control"}, "[7]": {"molecular_target": "Mitogen-activated protein kinase 14 (Homo sapiens) (UniProt Q16539)", "test": "Inhibition of human recombinant p38alpha assessed as residual activity at 10 uM after 1 hr by qPCR analysis relative to control"}, "[8]": {"molecular_target": "Dual specificity mitogen-activated protein kinase kinase 2 (Homo sapiens) (UniProt P36507)", "test": "Inhibition of human recombinant MEK2 assessed as residual activity at 10 uM after 1 hr by qPCR analysis relative to control"}, "[9]": {"molecular_target": "RAC-beta serine/threonine-protein kinase (Homo sapiens) (UniProt P31751)", "test": "Inhibition of human recombinant AKT2 assessed as residual activity at 10 uM after 1 hr by qPCR analysis relative to control"}, "[10]": {"molecular_target": "Phosphatidylinositol 4-phosphate 3-kinase C2 domain-containing subunit beta (Homo sapiens) (UniProt O00750)", "test": "Inhibition of human recombinant PIK3C2B assessed as residual activity at 10 uM after 1 hr by qPCR analysis relative to control"}, "[11]": {"molecular_target": "Mitogen-activated protein kinase 10 (Homo sapiens) (UniProt P53779)", "test": "Inhibition of human recombinant JNK3 assessed as residual activity at 10 uM after 1 hr by qPCR analysis relative to control"}, "[12]": {"molecular_target": "Casein kinase I isoform gamma-2 (Homo sapiens) (UniProt P78368)", "sequence (P78368 whole entry, looked up, canonical isoform)": "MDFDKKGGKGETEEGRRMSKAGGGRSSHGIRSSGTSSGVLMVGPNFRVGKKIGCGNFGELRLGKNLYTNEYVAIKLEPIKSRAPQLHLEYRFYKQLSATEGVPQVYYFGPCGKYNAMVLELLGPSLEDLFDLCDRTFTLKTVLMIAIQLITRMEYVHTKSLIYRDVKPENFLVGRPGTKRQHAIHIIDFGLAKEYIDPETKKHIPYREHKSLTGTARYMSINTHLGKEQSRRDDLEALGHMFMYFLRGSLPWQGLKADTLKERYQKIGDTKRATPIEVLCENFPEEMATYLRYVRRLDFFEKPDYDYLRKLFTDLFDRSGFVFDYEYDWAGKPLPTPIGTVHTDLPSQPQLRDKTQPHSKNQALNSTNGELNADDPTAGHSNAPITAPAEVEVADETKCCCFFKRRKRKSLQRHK", "test": "Inhibition of human recombinant CSNK1G2 assessed as residual activity at 10 uM after 1 hr by qPCR analysis relative to control"}, "[13]": {"molecular_target": "MAP/microtubule affinity-regulating kinase 3 (Homo sapiens) (UniProt P27448)", "sequence (P27448 whole entry, looked up)": "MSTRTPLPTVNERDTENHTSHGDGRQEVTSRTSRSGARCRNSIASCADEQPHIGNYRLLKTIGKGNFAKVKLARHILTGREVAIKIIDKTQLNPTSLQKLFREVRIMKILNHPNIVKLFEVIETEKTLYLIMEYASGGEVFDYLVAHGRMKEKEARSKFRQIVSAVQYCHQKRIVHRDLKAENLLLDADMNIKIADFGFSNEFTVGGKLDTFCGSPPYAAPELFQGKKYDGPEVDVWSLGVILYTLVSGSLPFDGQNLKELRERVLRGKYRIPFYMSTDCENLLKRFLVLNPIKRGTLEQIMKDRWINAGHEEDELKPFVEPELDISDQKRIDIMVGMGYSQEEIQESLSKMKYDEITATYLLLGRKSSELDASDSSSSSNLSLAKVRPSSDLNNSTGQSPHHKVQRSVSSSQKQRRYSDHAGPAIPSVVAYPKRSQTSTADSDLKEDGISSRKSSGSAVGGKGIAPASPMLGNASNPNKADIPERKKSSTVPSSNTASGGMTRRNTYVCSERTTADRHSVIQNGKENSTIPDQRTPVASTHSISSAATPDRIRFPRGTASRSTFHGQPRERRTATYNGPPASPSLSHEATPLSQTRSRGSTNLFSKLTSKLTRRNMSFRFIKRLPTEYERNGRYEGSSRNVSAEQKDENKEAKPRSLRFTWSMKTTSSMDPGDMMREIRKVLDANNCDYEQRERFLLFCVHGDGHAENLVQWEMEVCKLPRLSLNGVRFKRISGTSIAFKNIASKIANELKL", "test": "Inhibition of human recombinant MARK3 assessed as residual activity at 10 uM after 1 hr by qPCR analysis relative to control"}, "[14]": {"molecular_target": "MAP kinase-activated protein kinase 2 (Homo sapiens) (UniProt P49137)", "test": "Inhibition of human recombinant MAPKAPK2 assessed as residual activity at 10 uM after 1 hr by qPCR analysis relative to control"}, "[15]": {"molecular_target": "Activin receptor type-1B (Homo sapiens) (UniProt P36896)", "sequence (P36896 whole entry)": "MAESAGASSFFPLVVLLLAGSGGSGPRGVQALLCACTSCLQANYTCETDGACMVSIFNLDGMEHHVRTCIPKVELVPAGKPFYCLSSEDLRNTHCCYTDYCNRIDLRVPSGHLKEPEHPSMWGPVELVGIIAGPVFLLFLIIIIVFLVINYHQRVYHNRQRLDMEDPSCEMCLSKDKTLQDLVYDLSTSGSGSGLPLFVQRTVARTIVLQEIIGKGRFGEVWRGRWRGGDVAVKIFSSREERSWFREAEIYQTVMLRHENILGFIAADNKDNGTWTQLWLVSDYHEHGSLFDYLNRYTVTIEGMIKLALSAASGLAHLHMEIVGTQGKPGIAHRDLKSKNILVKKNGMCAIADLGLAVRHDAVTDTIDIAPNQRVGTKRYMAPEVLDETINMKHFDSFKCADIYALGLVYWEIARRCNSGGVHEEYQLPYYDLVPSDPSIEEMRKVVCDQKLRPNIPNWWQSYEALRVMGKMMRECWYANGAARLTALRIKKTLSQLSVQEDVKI", "test": "Inhibition of human recombinant ACVR1B assessed as residual activity at 10 uM after 1 hr by qPCR analysis relative to control"}, "[16]": {"system": "Mast/stem cell growth factor receptor Kit (Homo sapiens), P10721 [D816V]", "sequence (P10721 whole entry D816V)": "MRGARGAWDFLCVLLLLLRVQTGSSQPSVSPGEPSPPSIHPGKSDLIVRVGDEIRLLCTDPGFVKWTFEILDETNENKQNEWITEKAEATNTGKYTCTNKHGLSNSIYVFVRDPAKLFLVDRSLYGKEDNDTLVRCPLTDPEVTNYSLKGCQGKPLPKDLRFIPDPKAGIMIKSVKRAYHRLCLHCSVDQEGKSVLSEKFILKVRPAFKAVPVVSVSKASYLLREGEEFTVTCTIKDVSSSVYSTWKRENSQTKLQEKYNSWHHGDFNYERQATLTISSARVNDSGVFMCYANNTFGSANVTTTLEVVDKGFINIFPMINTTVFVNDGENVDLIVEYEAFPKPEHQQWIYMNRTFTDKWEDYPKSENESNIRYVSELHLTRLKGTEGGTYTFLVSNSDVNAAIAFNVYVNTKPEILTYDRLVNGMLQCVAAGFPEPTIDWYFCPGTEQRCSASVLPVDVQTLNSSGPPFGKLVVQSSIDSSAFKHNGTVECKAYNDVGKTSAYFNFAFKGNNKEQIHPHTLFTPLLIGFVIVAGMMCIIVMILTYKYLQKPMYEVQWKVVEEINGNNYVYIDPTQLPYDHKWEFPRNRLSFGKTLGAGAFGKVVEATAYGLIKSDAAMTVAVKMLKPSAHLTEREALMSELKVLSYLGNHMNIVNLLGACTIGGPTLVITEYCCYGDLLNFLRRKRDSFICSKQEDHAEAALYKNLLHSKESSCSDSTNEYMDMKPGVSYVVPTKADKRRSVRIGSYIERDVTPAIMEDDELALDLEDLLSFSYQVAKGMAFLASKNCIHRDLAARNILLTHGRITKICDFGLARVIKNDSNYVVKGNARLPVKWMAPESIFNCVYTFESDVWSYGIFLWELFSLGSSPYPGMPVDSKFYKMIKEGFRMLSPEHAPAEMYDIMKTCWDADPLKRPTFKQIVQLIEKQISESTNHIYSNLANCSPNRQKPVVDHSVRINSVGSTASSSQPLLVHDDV", "test": "Inhibition of human recombinant KIT D816V mutant assessed as residual activity at 10 uM after 1 hr by qPCR analysis relative to control"}, "[17]": {"system": "Mast/stem cell growth factor receptor Kit (Homo sapiens), P10721 [V559D,T670I]", "sequence (P10721 whole entry V559D/T670I)": "as the sequence (P10721 whole entry D816V) above, with V559D, T670I, V816D counted along it", "test": "Inhibition of human recombinant KIT V559D/T670I double mutant assessed as residual activity at 10 uM after 1 hr by qPCR analysis relative to control"}, "[18]": {"molecular_target": "Epidermal growth factor receptor (Homo sapiens) (UniProt P00533)", "sequence (P00533 whole entry)": "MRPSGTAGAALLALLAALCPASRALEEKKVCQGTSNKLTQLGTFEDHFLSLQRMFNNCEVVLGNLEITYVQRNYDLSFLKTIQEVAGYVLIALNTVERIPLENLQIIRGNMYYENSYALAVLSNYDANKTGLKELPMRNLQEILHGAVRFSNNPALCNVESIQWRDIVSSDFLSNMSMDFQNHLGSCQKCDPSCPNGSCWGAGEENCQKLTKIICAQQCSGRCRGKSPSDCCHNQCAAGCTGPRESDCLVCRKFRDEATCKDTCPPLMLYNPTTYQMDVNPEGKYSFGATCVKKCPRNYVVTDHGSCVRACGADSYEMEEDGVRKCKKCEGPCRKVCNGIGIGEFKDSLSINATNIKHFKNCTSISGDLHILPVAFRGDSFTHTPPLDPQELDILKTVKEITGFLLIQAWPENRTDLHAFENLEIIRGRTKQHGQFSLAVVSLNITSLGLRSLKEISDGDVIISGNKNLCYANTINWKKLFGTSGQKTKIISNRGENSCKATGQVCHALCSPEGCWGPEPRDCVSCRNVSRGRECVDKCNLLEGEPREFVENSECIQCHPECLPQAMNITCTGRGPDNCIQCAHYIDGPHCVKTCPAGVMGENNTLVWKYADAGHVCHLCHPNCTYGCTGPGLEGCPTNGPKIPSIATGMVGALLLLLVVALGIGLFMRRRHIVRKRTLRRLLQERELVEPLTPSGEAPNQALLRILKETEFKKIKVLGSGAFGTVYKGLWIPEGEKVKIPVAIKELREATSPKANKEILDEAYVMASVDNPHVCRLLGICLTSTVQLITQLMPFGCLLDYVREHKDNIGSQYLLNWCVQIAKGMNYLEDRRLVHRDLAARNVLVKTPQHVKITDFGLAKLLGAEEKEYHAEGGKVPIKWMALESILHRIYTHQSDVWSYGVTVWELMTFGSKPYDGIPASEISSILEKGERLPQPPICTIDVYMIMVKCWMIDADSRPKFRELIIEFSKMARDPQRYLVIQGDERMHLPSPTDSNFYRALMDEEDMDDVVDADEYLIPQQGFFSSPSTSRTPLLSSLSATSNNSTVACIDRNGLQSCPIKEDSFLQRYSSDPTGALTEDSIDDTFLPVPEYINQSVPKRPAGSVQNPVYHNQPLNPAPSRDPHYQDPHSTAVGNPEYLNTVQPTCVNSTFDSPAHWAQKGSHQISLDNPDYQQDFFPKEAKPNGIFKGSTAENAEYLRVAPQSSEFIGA", "test": "Inhibition of human recombinant EGFR assessed as residual activity at 10 uM after 1 hr by qPCR analysis relative to control"}, "[19]": {"molecular_target": "Rho-associated protein kinase 2 (Homo sapiens) (UniProt O75116)", "test": "Inhibition of human recombinant ROCK2 assessed as residual activity at 10 uM after 1 hr by qPCR analysis relative to control"}, "[20]": {"molecular_target": "Proto-oncogene tyrosine-protein kinase Src (Homo sapiens) (UniProt P12931)", "test": "Inhibition of human recombinant SRC assessed as residual activity at 10 uM after 1 hr by qPCR analysis relative to control"}, "[21]": {"molecular_target": "Aurora kinase B (Homo sapiens) (UniProt Q96GD4)", "sequence (Q96GD4 whole entry)": "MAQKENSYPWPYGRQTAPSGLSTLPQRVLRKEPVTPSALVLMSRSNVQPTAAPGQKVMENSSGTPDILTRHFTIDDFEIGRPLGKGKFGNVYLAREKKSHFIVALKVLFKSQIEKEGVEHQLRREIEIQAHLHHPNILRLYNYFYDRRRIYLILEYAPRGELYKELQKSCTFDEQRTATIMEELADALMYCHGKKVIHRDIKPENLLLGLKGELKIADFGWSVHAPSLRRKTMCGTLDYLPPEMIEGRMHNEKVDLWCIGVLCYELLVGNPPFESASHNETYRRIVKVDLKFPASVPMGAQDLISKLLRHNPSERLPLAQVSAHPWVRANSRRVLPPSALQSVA", "test": "Inhibition of human recombinant AURKB assessed as residual activity at 10 uM after 1 hr by qPCR analysis relative to control"}, "[22]": {"molecular_target": "Receptor-type tyrosine-protein kinase FLT3 (Homo sapiens) (UniProt P36888)", "test": "Inhibition of human recombinant FLT3 assessed as residual activity at 10 uM after 1 hr by qPCR analysis relative to control"}, "[23]": {"molecular_target": "Mitogen-activated protein kinase 8 (Homo sapiens) (UniProt P45983)", "test": "Inhibition of human recombinant JNK1 assessed as residual activity at 10 uM after 1 hr by qPCR analysis relative to control"}, "[24]": {"system": "786-0", "test": "Antitumor activity against human 786-0 cells xenografted in athymic nude/beige mouse assessed as tumor growth inhibition at 0.16 mg/kg, ip qd after 24 days", "type": "functional, organism-based"}, "[25]": {"molecular_target": "Serine/threonine-protein kinase PLK1 (Homo sapiens) (UniProt P53350)", "test": "Inhibition of human recombinant PLK1 assessed as residual activity at 10 uM after 1 hr by qPCR analysis relative to control"}, "[26]": {"molecular_target": "NUAK family SNF1-like kinase 2 (Homo sapiens) (UniProt Q9H093)", "test": "Inhibition of human recombinant SNARK assessed as residual activity at 10 uM after 1 hr by qPCR analysis relative to control"}, "[27]": {"molecular_target": "Serine/threonine-protein kinase PLK4 (Homo sapiens) (UniProt O00444)", "test": "Inhibition of human recombinant PLK4 assessed as residual activity at 10 uM after 1 hr by qPCR analysis relative to control"}, "[28]": {"molecular_target": "Serine/threonine-protein kinase B-raf (Homo sapiens) (UniProt P15056)", "sequence (P15056 whole entry)": "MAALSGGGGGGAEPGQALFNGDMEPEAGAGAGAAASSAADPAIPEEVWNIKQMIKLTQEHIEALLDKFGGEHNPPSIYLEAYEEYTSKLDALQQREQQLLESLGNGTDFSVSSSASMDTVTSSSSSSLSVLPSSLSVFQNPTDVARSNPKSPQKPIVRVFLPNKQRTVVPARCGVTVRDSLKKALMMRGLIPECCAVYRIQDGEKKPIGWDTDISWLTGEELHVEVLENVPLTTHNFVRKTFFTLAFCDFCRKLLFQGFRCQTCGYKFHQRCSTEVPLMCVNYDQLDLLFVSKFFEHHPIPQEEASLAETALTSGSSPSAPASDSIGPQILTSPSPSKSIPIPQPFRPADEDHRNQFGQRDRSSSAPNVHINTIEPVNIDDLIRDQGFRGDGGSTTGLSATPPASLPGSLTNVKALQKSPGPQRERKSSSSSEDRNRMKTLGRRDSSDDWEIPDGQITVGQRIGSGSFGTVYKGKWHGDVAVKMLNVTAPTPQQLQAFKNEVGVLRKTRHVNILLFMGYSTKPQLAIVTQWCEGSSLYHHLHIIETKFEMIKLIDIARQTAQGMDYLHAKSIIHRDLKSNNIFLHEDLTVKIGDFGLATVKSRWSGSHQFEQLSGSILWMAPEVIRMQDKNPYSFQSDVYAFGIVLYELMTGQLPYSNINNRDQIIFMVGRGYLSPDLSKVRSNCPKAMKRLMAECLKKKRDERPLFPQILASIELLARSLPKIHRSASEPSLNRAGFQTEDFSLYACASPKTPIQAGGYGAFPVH", "test": "Inhibition of human recombinant BRAF assessed as residual activity at 10 uM after 1 hr by qPCR analysis relative to control"}, "[29]": {"molecular_target": "Cyclin-dependent kinase 7 (Homo sapiens) (UniProt P50613)", "test": "Inhibition of human recombinant CDK7 assessed as residual activity at 10 uM after 1 hr by qPCR analysis relative to control"}, "[30]": {"molecular_target": "Receptor tyrosine-protein kinase erbB-2 (Homo sapiens) (UniProt P04626)", "test": "Inhibition of human recombinant ERBB2 assessed as residual activity at 10 uM after 1 hr by qPCR analysis relative to control"}}, "note": "Active and inactive are the calls of the source. No cut-off for these calls is given here."}
{"smiles": "Cc1c(Cl)cccc1NC(=O)c1sc2nc3c(cc2c1N)C(=O)CC3", "values": [{"measurement": "Activity", "setting": "[1]", "result": 100, "unit": "%"}, {"measurement": "Activity", "setting": "[2]", "result": 94, "unit": "%"}, {"measurement": "IC50", "setting": "[3]", "result": 2.2, "unit": "µM"}, {"measurement": "Activity", "setting": "[4]", "result": 100, "unit": "%"}, {"measurement": "Activity", "setting": "[5]", "result": 87, "unit": "%"}, {"measurement": "Activity", "setting": "[6]", "result": 100, "unit": "%"}, {"measurement": "Activity", "setting": "[7]", "result": 100, "unit": "%"}, {"measurement": "Activity", "setting": "[8]", "result": 98, "unit": "%"}, {"measurement": "Activity", "setting": "[9]", "result": 72, "unit": "%"}, {"measurement": "Activity", "setting": "[10]", "result": 100, "unit": "%"}, {"measurement": "Activity", "setting": "[11]", "result": 95, "unit": "%"}, {"measurement": "Activity", "setting": "[12]", "result": 97, "unit": "%"}, {"measurement": "Activity", "setting": "[13]", "result": 96, "unit": "%"}, {"measurement": "Activity", "setting": "[14]", "result": 100, "unit": "%"}, {"measurement": "Activity", "setting": "[15]", "result": 100, "unit": "%"}, {"measurement": "Activity", "setting": "[16]", "result": 93, "unit": "%"}, {"measurement": "Activity", "setting": "[17]", "result": 99, "unit": "%"}, {"measurement": "Activity", "setting": "[18]", "result": 100, "unit": "%"}, {"measurement": "Activity", "setting": "[19]", "result": 100, "unit": "%"}, {"measurement": "Activity", "setting": "[20]", "result": 95, "unit": "%"}, {"measurement": "Activity", "setting": "[21]", "result": 92, "unit": "%"}, {"measurement": "Activity", "setting": "[22]", "result": 100, "unit": "%"}, {"measurement": "Activity", "setting": "[23]", "result": 100, "unit": "%"}, {"measurement": "TGI", "setting": "[24]", "result": "Active"}, {"measurement": "Activity", "setting": "[25]", "result": 91, "unit": "%"}, {"measurement": "Activity", "setting": "[26]", "result": 100, "unit": "%"}, {"measurement": "Activity", "setting": "[27]", "result": 100, "unit": "%"}, {"measurement": "Activity", "setting": "[28]", "result": 96, "unit": "%"}, {"measurement": "Activity", "setting": "[29]", "result": 99, "unit": "%"}, {"measurement": "Activity", "setting": "[30]", "result": 100, "unit": "%"}]}
